Results on one compound are retold here after ChEMBL document CHEMBL5614421, “Structure-activity relationship study of Pseudellone C as anti-glioma agents by targeting TNF/TNFR signaling pathway” (Eur J Med Chem, 2024).

Calls of active or inactive are those of the source. The rule behind the calls is not given here.

Assay [1] relates to LN-229. Briefly: Induction of apoptosis in human LN-229 cells assessed as viable cells at 20 uM incubated for 24 hrs by Annexin V-APC/7-AAD staining based flow cytometric analysis (reference value: 95.4 %). In kind it is functional. As to conditions: read-out: Activity.
For assay [2], the system named is U-87 MG. The assay is described as follows: Induction of apoptosis in human U-87 MG cells assessed as necrotic cells at 20 uM incubated for 12 hrs by Annexin V-APC/7-AAD staining based flow cytometric analysis (reference value: 1 %). In kind it is functional, U-87MG ATCC. (Flow cytometry measures light scatter and fluorescence of single cells or particles in a stream.)

Assay [3] relates to LN-229. Briefly: Induction of apoptosis in human LN-229 cells assessed as necrotic cells at 20 uM incubated for 24 hrs by Annexin V-APC/7-AAD staining based flow cytometric analysis (reference value: 1.95 %). In kind it is functional.
Assay [4] concerns U-87 MG. Briefly: Induction of apoptosis in human U-87 MG cells assessed as late apoptotic cells at 20 uM incubated for 24 hrs by Annexin V-APC/7-AAD staining based flow cytometric analysis (reference value: 4.22 %). In kind it is functional, U-87MG ATCC.
Assay [5] concerns U-87 MG. The assay is described as follows: Induction of apoptosis in human U-87 MG cells assessed as viable cells at 10 uM incubated for 24 hrs by Annexin V-APC/7-AAD staining based flow cytometric analysis (reference value: 94 %). In kind it is functional, U-87MG ATCC. The conditions noted are these: read-out: Activity.
Assay [6] concerns LN-229. The assay is described as follows: Induction of apoptosis in human LN-229 cells assessed as viable cells at 20 uM incubated for 24 hrs by Annexin V-APC/7-AAD staining based flow cytometric analysis (reference value: 92.3 %). In kind it is functional. As to conditions: read-out: Activity.
Assay [7] deals with U-87 MG. Briefly: Induction of apoptosis in human U-87 MG cells assessed as viable cells at 20 uM incubated for 48 hrs by Annexin V-APC/7-AAD staining based flow cytometric analysis (reference value: 94.6 %). As to conditions: read-out: Activity. In kind it is functional, U-87MG ATCC.
For assay [8], the system named is U-87 MG. The assay is described as follows: Induction of apoptosis in human U-87 MG cells at 20 uM incubated for 24 hrs by Annexin V-APC/7-AAD staining based flow cytometric analysis relative to control. In kind it is functional, U-87MG ATCC.
The subject of assay [9] is LN-229. Briefly: Induction of apoptosis in human LN-229 cells assessed as late apoptotic cells at 5 uM incubated for 24 hrs by Annexin V-APC/7-AAD staining based flow cytometric analysis (reference value: 3.56 %). In kind it is functional.
Assay [10] deals with U-87 MG. Briefly: Induction of apoptosis in human U-87 MG cells assessed as late apoptotic cells at 10 uM incubated for 24 hrs by Annexin V-APC/7-AAD staining based flow cytometric analysis (reference value: 4.22 %). In kind it is functional, U-87MG ATCC.
Assay [11] has as its system LN-229. The assay is described as follows: Induction of apoptosis in human LN-229 cells assessed as viable cells at 5 uM incubated for 24 hrs by Annexin V-APC/7-AAD staining based flow cytometric analysis (reference value: 95.4 %). In kind it is functional. The conditions noted are these: read-out: Activity.
Assay [12] deals with LN-229. Briefly: Induction of apoptosis in human LN-229 cells assessed as necrotic cells at 20 uM incubated for 24 hrs in presence of R7050 by Annexin V-APC/7-AAD staining based flow cytometric analysis (reference value: 1.95 %). In kind it is functional.
Assay [13] deals with U-87 MG. Briefly: Induction of apoptosis in human U-87 MG cells assessed as reduction in Bcl-2/Bax ratio at 5 to 20 uM incubated for 24 hrs by Western blot analysis. In kind it is functional, cell-based. The conditions noted are these: U-87MG ATCC, dose 5-20 µM. Background: A western blot detects proteins with antibodies after separation by electrophoresis.
For assay [14], the system named is LN-229. Briefly: Induction of apoptosis in human LN-229 cells assessed as early apoptotic cells at 20 uM incubated for 48 hrs by Annexin V-APC/7-AAD staining based flow cytometric analysis (reference value: 2.46 %). In kind it is functional.
For assay [15], the system named is U-87 MG. Briefly: Induction of apoptosis in human U-87 MG cells assessed as necrotic cells at 20 uM incubated for 24 hrs by Annexin V-APC/7-AAD staining based flow cytometric analysis (reference value: 0.21 %). In kind it is functional, U-87MG ATCC.
Assay [16] concerns LN-229. The assay is described as follows: Induction of apoptosis in human LN-229 cells at 10 uM incubated for 48 hrs by Annexin V-APC/7-AAD staining based flow cytometric analysis (reference value: 7.32 +/- 0.71 %). In kind it is functional.
For assay [17], the system named is LN-229. Briefly: Induction of apoptosis in human LN-229 cells assessed as necrotic cells at 20 uM incubated for 24 hrs by Annexin V-APC/7-AAD staining based flow cytometric analysis (reference value: 0.56 %). In kind it is functional.

Turning to `CCCCCCCNC(=O)[C@H](Cc1c[nH]c2ccccc12)NC(=O)C(C)(c1c[nH]c2ccccc12)c1c[nH]c2ccccc12`, the values for the viability at 20 µM in the assay with LN-229 [1], with LN-229 [6] and with U-87 MG [7] were 79.8%, 66.2% and 78.7%, respectively. For the same compound, the Activity with U-87 MG [2] stood at 1.01%; with LN-229 [3], 1.94%; in the assay with U-87 MG [4], 11.6%; in the assay on U-87 MG [8] it was 24.89%; with LN-229 [9], 3.7%; in the assay on U-87 MG [10], 6.16%. Also, the Activity was found to be 1.25% in the assay on LN-229 [12]; 18.5% with LN-229 [14]; 0.47% in the assay on U-87 MG [15]; 61.42% with LN-229 [16]; 1.42% with LN-229 [17]. Besides, the viability at 10 µM with U-87 MG [5] came out at 89.2%. Besides, in the assay on LN-229 [11], the viability at 5 µM is 95%. Besides, in the assay on U-87 MG [13], the outcome was Active.
